Experimental data: publication PMC8541017, “Potent and Selective Inhibitors of Human Monoamine Oxidase A from an Endogenous Lichen Fungus Diaporthe mahothocarpus” (Journal of Fungi, 2021)
Where “and” joins values, the source holds several entries; their conditions need not be identical. Equal entries are not always repeated. Where two headings read alike, the source gives them in different places.

Key:
BACE1 = BACE1 (Homo sapiens, UniProt P56817); assay: BACE1 activity assay (fluorescence kit); conditions: for IC50: IC50 BACE1; for remaining activity at 10 µM: read-out: Residual Activity at 10 µM (%) BACE1
Method: Assays for inhibitory activities of compounds against hMAO-A, hMAO-B, AChE, BChE, and BACE1 were performed at 10-µM concentration of inhibitor.

BChE = biological target: T1, BChE (Equus caballus, UniProt P81908); assay: biochemical; design: species or system horse; conditions: read-out: Residual Activity at 10 µM (%) BChE
T1 construct: from tissue; host or cells: horse serum
Method: AChE from electric eel and BChE from horse serum were used for cholinesterases and assayed with a slight modification of the Ellman method. Shortly, after pre-incubating the enzyme and inhibitor for 15 min in 100 mM of sodium phosphate buffer (pH 7.5), 0.5 mM acetylthiocholine iodide (ATCI) or butyrylthiocholine iodide (BTCI) was added as a substrate for AChE or BChE assay, respectively. Then, 0.5 mM 5,5-dithiobis (2-nitrobenzoic acid) (DTNB) was added for color development for a final volume of 0.5 mL. Enzyme activity was measured for 15 min at room temperature in a kinetic mode at 412 nm.

hMAO-B [1] = biological target: T2, hMAO-B (Homo sapiens, UniProt P27338); assay: biochemical; conditions: for Residual Activity (%) hMAO-B: 1-µM concentration (footnote a)
T2 sequence (P27338 1-520): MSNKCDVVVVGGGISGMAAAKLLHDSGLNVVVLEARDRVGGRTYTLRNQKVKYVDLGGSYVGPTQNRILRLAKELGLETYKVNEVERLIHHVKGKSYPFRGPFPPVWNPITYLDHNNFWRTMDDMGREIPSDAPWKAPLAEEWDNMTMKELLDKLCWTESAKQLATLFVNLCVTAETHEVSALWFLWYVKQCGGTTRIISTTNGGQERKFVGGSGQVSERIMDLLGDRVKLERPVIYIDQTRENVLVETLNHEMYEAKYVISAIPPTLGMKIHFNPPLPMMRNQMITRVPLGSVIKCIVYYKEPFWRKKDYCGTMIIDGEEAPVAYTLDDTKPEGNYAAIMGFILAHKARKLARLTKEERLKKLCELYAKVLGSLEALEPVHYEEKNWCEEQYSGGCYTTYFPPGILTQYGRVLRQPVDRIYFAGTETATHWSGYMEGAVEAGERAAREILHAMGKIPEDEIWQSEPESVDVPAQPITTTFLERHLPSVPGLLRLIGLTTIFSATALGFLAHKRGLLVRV
Method: (§1) Human recombinant MAO-A and MAO-B were assayed in a reaction mixture of 0.5 mL containing 50 mM sodium phosphate buffer (pH 7.2) and the substrates (0.06 mM kynuramine for hMAO-A and 0.3 mM benzylamine for hMAO-B). […] [30, 31]. The reactions were started with the addition of substrates without preincubation of the enzyme and inhibitor.

hMAO-A [2] = biological target: T3, hMAO-A (Homo sapiens, UniProt P21397); assay: biochemical; conditions: for Residual Activity (%) hMAO-A: 1-µM concentration (footnote a); for inhibition type for hMAO-A: Lineweaver–Burk plot; for SI (selectivity index): hMAO-B/hMAO-A using IC50 values; for remaining activity at 2 µg/mL: read-out: Residual Activity at 2 µg/mL (%) hMAO-A
T3 sequence (P21397 1-527): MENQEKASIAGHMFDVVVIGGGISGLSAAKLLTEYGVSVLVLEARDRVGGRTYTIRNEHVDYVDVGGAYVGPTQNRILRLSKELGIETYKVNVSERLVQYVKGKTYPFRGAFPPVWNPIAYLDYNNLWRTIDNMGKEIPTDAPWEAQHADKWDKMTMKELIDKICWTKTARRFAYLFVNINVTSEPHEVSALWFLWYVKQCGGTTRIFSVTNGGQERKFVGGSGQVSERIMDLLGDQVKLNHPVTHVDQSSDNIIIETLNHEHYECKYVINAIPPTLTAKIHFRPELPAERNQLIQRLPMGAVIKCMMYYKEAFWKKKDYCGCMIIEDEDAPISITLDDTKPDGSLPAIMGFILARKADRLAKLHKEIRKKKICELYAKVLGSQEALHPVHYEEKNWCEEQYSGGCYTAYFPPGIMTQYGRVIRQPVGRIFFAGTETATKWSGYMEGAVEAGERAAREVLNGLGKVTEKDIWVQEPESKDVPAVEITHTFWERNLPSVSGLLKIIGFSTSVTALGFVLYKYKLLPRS
Method: as §1

hMAO-A [3] = biological target: T3, hMAO-A; type: biochemical; conditions: for reversibility of hMAO-A inhibition: recovery test after dialysis; for residual hMAO-A activity after dialysis / residual hMAO-A activity before dialysis: ~2 × IC50: AT 0.040 µM, HAT 0.60 µM, MED 18.0 µM, toloxatone 2.0 µM, clorgyline 0.014 µM
topoisomerase II = conditions: cited from earlier work
AChE = biological target: T4, AChE (Electrophorus electricus, UniProt O42275); assay: biochemical; design: species or system electric eel; conditions: for remaining activity at 10 µM: read-out: Residual Activity at 10 µM (%) AChE
T4 construct: AChE from electric eel and BChE from horse serum were used; from tissue; host or cells: electric eel

hMAO-A [4] = biological target: T3, hMAO-A; conditions: cited from earlier work
hMAO-B [5] = biological target: T2, hMAO-B; design: method as in PMID 33530616; conditions: cited from earlier work
MAO = conditions: read-out: IC50 MAO inhibitory activity; cited from earlier work

T1 sequence (P81908 whole entry): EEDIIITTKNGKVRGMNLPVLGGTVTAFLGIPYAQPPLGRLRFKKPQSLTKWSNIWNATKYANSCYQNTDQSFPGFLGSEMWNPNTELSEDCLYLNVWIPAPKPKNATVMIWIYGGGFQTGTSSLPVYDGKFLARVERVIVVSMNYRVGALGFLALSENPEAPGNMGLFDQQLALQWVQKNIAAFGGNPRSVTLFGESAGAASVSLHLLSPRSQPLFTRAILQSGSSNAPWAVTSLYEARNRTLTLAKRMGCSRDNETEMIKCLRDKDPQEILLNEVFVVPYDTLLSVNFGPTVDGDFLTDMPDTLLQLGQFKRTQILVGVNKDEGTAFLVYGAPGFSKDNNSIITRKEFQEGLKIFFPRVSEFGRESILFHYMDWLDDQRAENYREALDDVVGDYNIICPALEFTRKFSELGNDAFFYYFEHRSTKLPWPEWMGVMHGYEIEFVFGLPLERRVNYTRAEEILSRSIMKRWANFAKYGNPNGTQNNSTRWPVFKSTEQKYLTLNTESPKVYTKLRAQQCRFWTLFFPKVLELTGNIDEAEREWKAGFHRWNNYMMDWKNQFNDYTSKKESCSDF
T4 sequence (O42275 24-633): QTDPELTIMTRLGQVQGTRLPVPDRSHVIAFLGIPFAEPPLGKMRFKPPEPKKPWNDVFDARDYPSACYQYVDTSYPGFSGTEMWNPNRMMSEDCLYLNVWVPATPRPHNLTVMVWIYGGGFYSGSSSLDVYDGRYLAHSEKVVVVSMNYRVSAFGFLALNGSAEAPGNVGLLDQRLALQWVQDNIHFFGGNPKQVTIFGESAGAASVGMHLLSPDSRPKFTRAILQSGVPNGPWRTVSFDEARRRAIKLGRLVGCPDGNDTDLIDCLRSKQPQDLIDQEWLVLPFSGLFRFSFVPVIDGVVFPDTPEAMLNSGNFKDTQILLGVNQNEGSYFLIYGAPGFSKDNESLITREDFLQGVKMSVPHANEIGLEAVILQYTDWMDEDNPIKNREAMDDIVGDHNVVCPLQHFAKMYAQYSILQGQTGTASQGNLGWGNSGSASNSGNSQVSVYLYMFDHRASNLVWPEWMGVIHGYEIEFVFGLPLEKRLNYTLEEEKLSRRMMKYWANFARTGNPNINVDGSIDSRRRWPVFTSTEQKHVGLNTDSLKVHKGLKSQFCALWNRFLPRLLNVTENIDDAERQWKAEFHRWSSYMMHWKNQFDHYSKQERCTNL
BACE1, sequence (P56817 46-501): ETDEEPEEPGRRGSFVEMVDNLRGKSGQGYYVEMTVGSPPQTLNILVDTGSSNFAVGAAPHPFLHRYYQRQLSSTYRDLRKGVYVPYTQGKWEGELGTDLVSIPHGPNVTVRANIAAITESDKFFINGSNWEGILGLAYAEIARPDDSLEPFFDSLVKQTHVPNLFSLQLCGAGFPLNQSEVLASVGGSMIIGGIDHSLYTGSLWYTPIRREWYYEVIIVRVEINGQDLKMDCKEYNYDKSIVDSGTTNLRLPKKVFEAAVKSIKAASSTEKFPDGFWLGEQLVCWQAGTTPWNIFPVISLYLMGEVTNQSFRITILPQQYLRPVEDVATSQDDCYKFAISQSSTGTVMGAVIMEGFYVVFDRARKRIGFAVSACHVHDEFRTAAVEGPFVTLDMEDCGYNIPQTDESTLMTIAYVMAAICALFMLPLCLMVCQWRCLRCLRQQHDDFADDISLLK

Row | SMILES | IC50 (BACE1) [µM] | remaining activity at 10 µM (BACE1) [%] | remaining activity at 10 µM (BChE) [%] | IC50 (hMAO-B [1]) [µM] | Residual Activity (%) hMAO-B (hMAO-B [1]) [%] | Ki (hMAO-A [2]) [µM] | times higher hMAO-A inhibitory activity than toloxatone (hMAO-A [2]) [times] | Residual Activity (%) hMAO-A (hMAO-A [2]) [%] | IC50 (hMAO-A [2]; IC50 hMAO-A) [µM] | inhibition type for hMAO-A (hMAO-A [2]) | SI (selectivity index) (hMAO-A [2]) | remaining activity at 2 µg/mL (hMAO-A [2]) [%] | reversibility of hMAO-A inhibition (hMAO-A [3]) | residual hMAO-A activity after dialysis (hMAO-A [3]) [%] | residual hMAO-A activity before dialysis (hMAO-A [3]) [%] | IC50 (AChE) [µM] | remaining activity at 10 µM (AChE) [%] | IC50 (hMAO-A [4]) [µM] | further results
1 | Cc1cc(O)cc2oc(=O)c3c(O)cc(O)cc3c12 [AT, alternariol] | 36.7 ± 3.3 | 80.9 ± 0.2 | 93.3 ± 4.1 | 20.7 ± 2.2 | 75.6 ± 2.3 | 0.0075 | 54.0 | −3.1 ± 0.0 | 0.02 ± 0.001 | reversible competitive inhibitors | 1035 | -5.41 ± 0.98 | reversible inhibitors | 60.5 | 33.5 | 10 ± 0.9 | 58.7 ± 2 | – | concentration at which ROS formation and topoisomerase II interaction relate to toxicity (topoisomerase II): > 10 µM
2 | Cc1c(O)c(O)cc2oc(=O)c3c(O)cc(O)cc3c12 [HAT, 5′-hydroxy-alternariol] | 24.7 | 71.3 ± 3.8 | 96.2 ± 2.3 | > 40 | 83.3 ± 4.0 | 0.116 | 3.5 | 17.7 ± 1.1 | 0.31 ± 0.02 | reversible competitive inhibitors | >129 | 3.39 ± 3.43 | reversible inhibitors | 79.4 | 42.1 | 19.9 ± 0.2 | 65.6 ± 3.8 | – | times effective against hMAO-A than alternariol monomethyl ether (hMAO-A [2]; ratio of IC50 values): 5.5 times
3 | CC(=O)O[C@H]1C=CC(=O)O[C@H]1[C@@H]1[C@H](C)[C@H]2C=CC=C[C@@H]1O2 [MED, mycoepoxydiene] | 35.9 ± 0.3 | 80.5 ± 2.7 | 95.5 ± 5.5 | – | – | – | – | – | – | reversible competitive inhibitors | >4.59 | – | reversible inhibitors | 83.7 | 28.7 | – | 65.2 ± 2.7 | – | IC50 (hMAO-B [1]; read-out: IC50 hMAO-B): > 40 µM; remaining activity at 10 µM (hMAO-B [1]; read-out: Residual Activity at 10 µM (%) hMAO-B): 85.4 ± 6.9%; Ki (hMAO-A [2]; Lineweaver–Burk secondary plot, read-out: Ki hMAO-A): 3.76 µM; remaining activity at 2 µg/mL (hMAO-A [2]; isolated compounds from ELF29, 2 µg/mL): 66.7 ± 1.84%; IC50 (hMAO-A [2]; read-out: IC50 hMAO-A): 8.68 µM and 8.7 µM; remaining activity at 10 µM (hMAO-A [2]; read-out: Residual Activity at 10 µM (%) hMAO-A): 42.7 ± 0.9%; IC50 (AChE; read-out: IC50 AChE): 18.6 ± 1.3 µM
4 | COc1cc(O)c2c(=O)oc3cc(O)cc(C)c3c2c1 [alternariol monomethyl ether] | – | – | – | – | – | – | – | – | – | – | – | – | – | – | – | – | – | 1.71 | –
5 | CC1CC(=O)c2c(O)cccc2O1 (centres unmarked) [hydroxy-2-methyl-chroman-4-one] | – | – | – | – | – | – | – | – | – | – | – | – | – | – | – | – | – | 14 | IC50 (hMAO-B [5]): 3.23 µM
6 | CCCCCC(=O)c1c(O)cc2c(c1O)C(=O)c1c(O)cc(OC)cc1C2=O [solorinic acid] | – | – | – | – | – | – | – | – | – | – | – | – | – | – | – | – | – | – | IC50 (MAO): 14.3 µM
